Measured values as given in PMC8213057, “Targeting ALK2: An Open Science Approach to Developing Therapeutics for the Treatment of Diffuse Intrinsic Pontine Glioma” (Journal of Medicinal Chemistry, 2020).

How the values were obtained:
LKB1 = biological target: T1, LKB1 (Homo sapiens, UniProt Q15831); assay: biochemical; conditions: read-out: % enzyme activity, 1 μM; Run 1, Run 2
T1 sequence (Q15831 1-433): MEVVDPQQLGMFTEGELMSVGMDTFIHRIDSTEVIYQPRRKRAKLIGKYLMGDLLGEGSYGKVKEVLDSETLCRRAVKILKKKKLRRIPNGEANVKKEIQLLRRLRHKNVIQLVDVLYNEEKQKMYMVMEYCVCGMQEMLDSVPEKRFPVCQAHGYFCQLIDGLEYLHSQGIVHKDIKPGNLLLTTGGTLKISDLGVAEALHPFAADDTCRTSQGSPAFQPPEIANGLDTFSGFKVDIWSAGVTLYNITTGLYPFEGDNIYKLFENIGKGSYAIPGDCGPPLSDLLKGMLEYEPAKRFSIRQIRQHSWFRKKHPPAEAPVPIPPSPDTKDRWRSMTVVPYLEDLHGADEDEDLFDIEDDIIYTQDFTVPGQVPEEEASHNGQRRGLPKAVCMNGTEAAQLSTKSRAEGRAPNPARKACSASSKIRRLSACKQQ
T1 sequence (Q7RTN6 1-431 partner): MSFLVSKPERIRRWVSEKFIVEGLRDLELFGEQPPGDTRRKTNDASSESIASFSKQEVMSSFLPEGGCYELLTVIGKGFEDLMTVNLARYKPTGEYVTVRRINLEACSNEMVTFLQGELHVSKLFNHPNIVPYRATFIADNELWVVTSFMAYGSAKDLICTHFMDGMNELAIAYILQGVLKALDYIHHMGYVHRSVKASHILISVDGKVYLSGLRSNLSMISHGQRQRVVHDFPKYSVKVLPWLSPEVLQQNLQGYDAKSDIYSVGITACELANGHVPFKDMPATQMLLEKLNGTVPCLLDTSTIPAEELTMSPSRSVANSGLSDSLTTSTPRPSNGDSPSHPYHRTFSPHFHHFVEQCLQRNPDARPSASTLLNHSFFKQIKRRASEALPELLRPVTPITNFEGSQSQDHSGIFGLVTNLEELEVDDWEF
T1 sequence (Q9Y376 1-341 partner): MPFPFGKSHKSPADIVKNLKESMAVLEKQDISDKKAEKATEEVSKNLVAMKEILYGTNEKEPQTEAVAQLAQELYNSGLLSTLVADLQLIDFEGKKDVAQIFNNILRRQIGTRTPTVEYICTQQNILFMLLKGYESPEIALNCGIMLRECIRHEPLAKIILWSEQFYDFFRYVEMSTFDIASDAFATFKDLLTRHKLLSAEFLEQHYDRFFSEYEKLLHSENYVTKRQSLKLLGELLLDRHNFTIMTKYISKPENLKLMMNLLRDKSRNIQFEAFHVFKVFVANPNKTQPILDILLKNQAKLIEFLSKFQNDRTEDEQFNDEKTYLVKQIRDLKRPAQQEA

PEAK1 = PEAK1 (Homo sapiens, UniProt Q9H792); conditions: 1 μM; Run 1, Run 2
MARK2/PAR-1Ba = MARK2/PAR-1Ba (Homo sapiens, UniProt Q7KZI7); conditions: 1 μM; Run 1, Run 2
PKCb1 = PKCb1 (Homo sapiens, UniProt P05771); conditions: 1 μM; Run 1, Run 2
CLK1 = CLK1 (Homo sapiens, UniProt P49759); conditions: 1 μM; Run 1, Run 2
ROCK2 = ROCK2 (Homo sapiens, UniProt O75116); assay: biochemical; conditions: read-out: % enzyme activity, 1 μM; Run 1, Run 2
MSSK1/STK23 = MSSK1/STK23 (Homo sapiens, UniProt Q9UPE1); assay: biochemical; conditions: read-out: % enzyme activity, 1 μM; Run 1, Run 2
TYK1/LTK = TYK1/LTK (Homo sapiens, UniProt P29376); conditions: 1 μM; Run 1, Run 2
PLK3 = PLK3 (Homo sapiens, UniProt Q9H4B4); assay: biochemical; conditions: read-out: % enzyme activity, 1 μM; Run 1, Run 2
EPHA4 = EPHA4 (Homo sapiens, UniProt P54764); assay: biochemical; conditions: read-out: % enzyme activity, 1 μM; Run 1, Run 2
NEK9 = biological target: T2, NEK9 (Homo sapiens, UniProt Q8TD19); conditions: 1 μM; Run 1, Run 2
T2 sequence (Q8TD19 1-979): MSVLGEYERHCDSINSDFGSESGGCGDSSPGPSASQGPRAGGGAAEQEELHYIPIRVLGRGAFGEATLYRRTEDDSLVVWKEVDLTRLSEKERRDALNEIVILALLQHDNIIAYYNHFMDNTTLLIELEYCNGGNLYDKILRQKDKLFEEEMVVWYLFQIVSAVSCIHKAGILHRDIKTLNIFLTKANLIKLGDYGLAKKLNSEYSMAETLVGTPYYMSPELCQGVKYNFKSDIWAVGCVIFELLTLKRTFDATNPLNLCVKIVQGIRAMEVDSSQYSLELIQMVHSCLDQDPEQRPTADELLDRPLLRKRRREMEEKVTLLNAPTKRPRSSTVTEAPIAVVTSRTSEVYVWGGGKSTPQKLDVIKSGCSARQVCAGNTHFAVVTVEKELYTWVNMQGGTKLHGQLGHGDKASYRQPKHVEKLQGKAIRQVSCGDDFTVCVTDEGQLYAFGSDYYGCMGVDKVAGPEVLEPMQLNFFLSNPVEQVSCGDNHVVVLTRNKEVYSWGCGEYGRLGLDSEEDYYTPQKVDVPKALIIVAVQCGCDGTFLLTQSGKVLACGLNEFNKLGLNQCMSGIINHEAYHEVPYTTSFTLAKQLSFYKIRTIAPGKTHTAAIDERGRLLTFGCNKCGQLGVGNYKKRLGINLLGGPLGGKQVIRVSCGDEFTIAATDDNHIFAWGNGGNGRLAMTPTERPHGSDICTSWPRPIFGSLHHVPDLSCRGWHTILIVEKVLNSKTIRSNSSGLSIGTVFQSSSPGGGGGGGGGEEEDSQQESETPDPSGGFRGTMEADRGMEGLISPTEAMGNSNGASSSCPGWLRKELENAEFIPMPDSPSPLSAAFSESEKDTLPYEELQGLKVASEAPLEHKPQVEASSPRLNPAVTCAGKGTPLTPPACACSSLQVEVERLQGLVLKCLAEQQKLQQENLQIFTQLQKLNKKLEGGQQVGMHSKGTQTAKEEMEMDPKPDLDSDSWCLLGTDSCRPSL

FGFR1 = FGFR1 (Homo sapiens, UniProt P11362); conditions: 1 μM; Run 1, Run 2
FGFR1, sequence (P11362 22-822): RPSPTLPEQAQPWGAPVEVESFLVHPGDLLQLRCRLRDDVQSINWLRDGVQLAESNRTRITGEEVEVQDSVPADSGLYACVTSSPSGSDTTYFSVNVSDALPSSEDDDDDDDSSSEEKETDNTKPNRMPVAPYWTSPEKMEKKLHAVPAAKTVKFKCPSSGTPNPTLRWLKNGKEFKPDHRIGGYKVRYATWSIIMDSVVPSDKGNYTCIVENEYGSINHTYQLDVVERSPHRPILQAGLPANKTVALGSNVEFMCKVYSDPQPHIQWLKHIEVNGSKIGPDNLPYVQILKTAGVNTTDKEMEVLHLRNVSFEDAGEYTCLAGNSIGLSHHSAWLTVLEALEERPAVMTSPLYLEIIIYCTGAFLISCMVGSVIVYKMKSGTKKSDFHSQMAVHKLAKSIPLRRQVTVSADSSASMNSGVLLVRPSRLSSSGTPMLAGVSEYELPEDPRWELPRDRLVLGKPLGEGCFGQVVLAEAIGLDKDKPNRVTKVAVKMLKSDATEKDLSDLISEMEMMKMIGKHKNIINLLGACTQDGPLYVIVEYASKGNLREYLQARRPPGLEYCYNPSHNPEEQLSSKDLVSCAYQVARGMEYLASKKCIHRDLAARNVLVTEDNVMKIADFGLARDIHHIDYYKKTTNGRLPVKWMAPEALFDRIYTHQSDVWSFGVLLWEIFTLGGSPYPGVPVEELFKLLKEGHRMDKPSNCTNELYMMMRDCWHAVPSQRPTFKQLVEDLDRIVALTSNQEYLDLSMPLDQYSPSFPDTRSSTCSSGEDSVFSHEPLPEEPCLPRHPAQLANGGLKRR

ROCK2, sequence (O75116 whole entry): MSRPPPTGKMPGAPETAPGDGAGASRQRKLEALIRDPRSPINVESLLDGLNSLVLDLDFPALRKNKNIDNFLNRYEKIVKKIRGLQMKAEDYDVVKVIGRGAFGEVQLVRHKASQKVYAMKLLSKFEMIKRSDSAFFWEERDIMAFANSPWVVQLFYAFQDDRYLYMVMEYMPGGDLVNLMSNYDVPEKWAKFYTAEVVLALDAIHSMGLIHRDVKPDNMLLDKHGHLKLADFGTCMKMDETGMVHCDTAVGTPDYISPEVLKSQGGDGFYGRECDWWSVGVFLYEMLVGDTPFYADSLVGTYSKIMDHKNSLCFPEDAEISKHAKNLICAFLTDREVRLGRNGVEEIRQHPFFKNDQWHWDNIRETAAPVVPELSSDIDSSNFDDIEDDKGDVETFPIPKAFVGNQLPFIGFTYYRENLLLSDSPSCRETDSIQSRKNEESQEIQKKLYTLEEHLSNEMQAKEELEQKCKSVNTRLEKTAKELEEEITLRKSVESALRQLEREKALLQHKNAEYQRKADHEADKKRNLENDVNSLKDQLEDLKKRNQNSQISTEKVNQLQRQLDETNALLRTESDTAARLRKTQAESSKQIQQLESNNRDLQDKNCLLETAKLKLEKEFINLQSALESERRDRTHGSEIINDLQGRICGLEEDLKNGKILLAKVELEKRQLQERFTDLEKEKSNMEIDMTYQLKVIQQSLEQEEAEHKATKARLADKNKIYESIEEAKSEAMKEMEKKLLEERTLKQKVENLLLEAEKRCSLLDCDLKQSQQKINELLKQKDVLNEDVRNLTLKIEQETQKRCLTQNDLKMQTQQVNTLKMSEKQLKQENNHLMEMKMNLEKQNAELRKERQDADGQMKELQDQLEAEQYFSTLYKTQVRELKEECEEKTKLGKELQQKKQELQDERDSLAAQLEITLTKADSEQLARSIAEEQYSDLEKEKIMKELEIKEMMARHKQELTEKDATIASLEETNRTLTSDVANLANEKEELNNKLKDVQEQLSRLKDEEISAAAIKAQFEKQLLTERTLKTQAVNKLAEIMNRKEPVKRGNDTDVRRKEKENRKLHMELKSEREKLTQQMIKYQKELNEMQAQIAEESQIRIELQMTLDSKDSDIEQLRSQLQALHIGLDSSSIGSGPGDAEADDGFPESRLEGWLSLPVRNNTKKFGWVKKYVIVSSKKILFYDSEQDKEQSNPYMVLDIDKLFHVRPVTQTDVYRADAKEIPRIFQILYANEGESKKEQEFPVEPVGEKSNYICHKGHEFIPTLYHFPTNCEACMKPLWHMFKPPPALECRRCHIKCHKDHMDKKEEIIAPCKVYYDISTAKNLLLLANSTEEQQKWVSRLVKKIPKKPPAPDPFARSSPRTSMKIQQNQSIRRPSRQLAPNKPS
MSSK1/STK23, sequence (Q9UPE1 whole entry): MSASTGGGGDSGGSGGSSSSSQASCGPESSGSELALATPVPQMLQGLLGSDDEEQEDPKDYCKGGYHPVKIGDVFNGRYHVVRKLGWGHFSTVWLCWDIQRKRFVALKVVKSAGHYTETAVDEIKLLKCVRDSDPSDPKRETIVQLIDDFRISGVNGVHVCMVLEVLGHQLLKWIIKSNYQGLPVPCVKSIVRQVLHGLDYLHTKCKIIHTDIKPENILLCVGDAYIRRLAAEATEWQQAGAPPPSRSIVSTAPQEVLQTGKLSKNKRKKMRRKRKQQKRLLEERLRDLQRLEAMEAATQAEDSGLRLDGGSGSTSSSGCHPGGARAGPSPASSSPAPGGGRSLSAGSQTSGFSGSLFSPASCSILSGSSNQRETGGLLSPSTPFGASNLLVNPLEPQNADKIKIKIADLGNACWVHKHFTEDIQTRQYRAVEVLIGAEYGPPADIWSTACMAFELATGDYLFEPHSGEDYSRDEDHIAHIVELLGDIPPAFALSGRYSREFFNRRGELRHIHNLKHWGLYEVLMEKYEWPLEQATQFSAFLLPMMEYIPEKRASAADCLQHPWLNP
MARK2/PAR-1Ba, sequence (Q7KZI7 whole entry): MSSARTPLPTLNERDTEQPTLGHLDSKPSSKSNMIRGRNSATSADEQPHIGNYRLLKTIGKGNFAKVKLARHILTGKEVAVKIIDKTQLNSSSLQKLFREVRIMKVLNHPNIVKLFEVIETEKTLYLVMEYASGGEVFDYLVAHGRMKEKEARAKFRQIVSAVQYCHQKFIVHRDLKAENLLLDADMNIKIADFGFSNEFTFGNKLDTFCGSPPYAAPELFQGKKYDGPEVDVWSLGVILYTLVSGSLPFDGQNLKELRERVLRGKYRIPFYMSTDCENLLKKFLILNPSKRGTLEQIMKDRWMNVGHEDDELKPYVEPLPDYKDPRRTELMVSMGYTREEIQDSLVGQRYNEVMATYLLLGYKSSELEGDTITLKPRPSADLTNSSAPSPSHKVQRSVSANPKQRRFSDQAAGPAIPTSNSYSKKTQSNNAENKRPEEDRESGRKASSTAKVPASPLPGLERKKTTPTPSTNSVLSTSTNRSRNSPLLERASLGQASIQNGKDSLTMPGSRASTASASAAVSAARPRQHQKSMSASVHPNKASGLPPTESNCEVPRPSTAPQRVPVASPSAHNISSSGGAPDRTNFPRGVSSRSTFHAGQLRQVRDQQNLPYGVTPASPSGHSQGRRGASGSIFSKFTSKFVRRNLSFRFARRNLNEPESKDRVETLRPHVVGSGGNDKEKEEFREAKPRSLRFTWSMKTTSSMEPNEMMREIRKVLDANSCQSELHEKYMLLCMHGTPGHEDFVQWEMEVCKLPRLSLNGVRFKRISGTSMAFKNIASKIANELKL
EPHA4, sequence (P54764 20-986): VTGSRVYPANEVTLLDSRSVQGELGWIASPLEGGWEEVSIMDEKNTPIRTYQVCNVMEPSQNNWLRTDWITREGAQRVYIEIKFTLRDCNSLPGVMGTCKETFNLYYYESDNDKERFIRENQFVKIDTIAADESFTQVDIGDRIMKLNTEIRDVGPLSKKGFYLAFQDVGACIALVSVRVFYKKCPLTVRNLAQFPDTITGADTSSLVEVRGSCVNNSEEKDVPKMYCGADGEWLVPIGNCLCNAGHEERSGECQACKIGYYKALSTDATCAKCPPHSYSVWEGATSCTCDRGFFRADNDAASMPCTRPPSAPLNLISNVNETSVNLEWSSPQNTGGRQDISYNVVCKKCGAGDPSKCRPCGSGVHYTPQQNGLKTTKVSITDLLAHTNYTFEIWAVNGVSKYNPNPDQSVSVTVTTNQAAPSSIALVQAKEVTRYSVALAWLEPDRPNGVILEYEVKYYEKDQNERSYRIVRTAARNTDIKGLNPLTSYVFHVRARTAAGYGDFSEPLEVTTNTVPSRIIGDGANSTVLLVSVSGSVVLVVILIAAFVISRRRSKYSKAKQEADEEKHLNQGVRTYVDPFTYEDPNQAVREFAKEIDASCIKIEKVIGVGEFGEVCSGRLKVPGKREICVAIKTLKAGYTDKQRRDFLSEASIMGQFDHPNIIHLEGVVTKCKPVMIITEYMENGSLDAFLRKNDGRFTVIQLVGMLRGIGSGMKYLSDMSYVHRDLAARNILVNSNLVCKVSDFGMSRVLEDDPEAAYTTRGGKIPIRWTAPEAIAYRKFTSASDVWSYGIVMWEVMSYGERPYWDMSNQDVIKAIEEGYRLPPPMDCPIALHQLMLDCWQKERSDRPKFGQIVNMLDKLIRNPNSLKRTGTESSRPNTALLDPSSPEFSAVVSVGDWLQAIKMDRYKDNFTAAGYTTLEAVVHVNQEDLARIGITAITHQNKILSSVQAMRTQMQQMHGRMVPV
CLK1, sequence (P49759 whole entry): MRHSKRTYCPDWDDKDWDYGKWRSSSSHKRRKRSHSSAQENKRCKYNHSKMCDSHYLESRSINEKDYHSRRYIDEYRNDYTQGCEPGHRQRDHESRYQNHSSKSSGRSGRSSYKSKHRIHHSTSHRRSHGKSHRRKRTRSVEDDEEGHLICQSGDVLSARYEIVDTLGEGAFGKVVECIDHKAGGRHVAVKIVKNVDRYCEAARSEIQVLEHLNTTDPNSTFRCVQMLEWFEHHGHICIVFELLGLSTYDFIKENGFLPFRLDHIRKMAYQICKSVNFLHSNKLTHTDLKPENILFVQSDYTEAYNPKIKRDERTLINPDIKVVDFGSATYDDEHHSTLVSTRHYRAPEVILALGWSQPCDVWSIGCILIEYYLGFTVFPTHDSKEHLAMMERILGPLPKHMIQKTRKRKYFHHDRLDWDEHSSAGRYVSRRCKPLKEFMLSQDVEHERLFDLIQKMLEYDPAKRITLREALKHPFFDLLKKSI

For COc1cc(-c2cncc(-c3ccc(N4CCN(C)CC4)cc3)c2C)cc(F)c1C(N)=O [Compound 26a, 2-Fluoro-6-methoxy-4-(4-methyl-5-(4-(4-methylpiperazin-1-yl)phenyl)pyridin-3-yl)benzamide], the remaining activity at 1 µM (LKB1) was 80.7%, the “% enzyme activity” value (PEAK1) was 97.59% and the “% enzyme activity” value (MARK2/PAR-1Ba) was 91.66%. The “% enzyme activity” value (PKCb1) was 82.63%, the “% enzyme activity” value (CLK1) was 94.42% and the remaining activity at 1 µM (ROCK2) was 116%. The remaining activity at 1 µM (MSSK1/STK23) was 99.3%, the “% enzyme activity” value (TYK1/LTK) was 99.76% and the remaining activity at 1 µM (PLK3) was 95%. For the same compound, the remaining activity at 1 µM (EPHA4) was 95.3%, the “% enzyme activity” value (NEK9) was 91.72% and the “% enzyme activity” value (FGFR1) was 96.52%.
In the case of COc1cc(-c2cncc(-c3ccc(N4C[C@@H](C)N(C)[C@@H](C)C4)cc3)c2C)cc(F)c1C(N)=O [Compound 26c, 2-Fluoro-6-methoxy-4-(4-methyl-5-(4-((3R,5S)-3,4,5-trimethylpiperazin-1-yl)phenyl)pyridin-3-yl)benzamide], the remaining activity at 1 µM (LKB1) is reported as 96.1%, the “% enzyme activity” value (PEAK1) is reported as 95.56% and the “% enzyme activity” value (MARK2/PAR-1Ba) is reported as 103.03%. For the same compound, the “% enzyme activity” value (PKCb1) was 83.58%, the “% enzyme activity” value (CLK1) was 86.91% and the remaining activity at 1 µM (ROCK2) was 101%. The remaining activity at 1 µM (MSSK1/STK23) was 99.8%, the “% enzyme activity” value (TYK1/LTK) was 99.99% and the remaining activity at 1 µM (PLK3) was 97.7%. The remaining activity at 1 µM (EPHA4) was 99.3%, the “% enzyme activity” value (NEK9) was 93.51% and the “% enzyme activity” value (FGFR1) was 99.91%.
